Assay results from patent publication US4871388A, “Herbicidal liquid concentrate compositions” (priority 1987, dated 1989).

Columns and labels:
[1] = Initial solubility and dissolution in water of 7.5 g of liquid concentrate compositions utilizing 1 molar equivalent of different acids (Table II); details: solvents with greater than 20% by weight solubility; without addition of 0.2 to 1.0 molar equivalent of acids
[2] = Dilution in water of solutions of the ester(s) to normal agricultural tank-mix rates; assay type: physicochemical; details: solvents with >15% solubility; normal agricultural tank-mix rates (1:9-1:99)
[3] = Solubility of the isomeric mixture at room temperature in various solvents (Table I); assay type: physicochemical
Description: |at Room Temperature in Various Solvents

isomeric mixture of 6-(5-isopropyl-5-methyl-4-oxo-2-imidazolin-2-yl)-m-toluic acid, methyl ester and 2-(5-isopropyl-5-methyl-4-oxo-2-imidazolin-2-yl)-p-toluic acid, methyl ester
> 15%: % Solubility by Weight ([3]; solvent: 1-Formylpiperidine) | % Solubility by Weight ([3]; solvent: 1-propanol) | % Solubility by Weight ([3]; solvent: Amyl alcohol (mixed)) | % Solubility by Weight ([3]; solvent: Chloroform) | % Solubility by Weight ([3]; solvent: Dimethyl sulfoxide) | % Solubility by Weight ([3]; solvent: Dimethylformamide) | % Solubility by Weight ([3]; solvent: Methanol) | % Solubility by Weight ([3]; solvent: Methyl cellosolve) | % Solubility by Weight ([3]; solvent: N-methylpyrrolidone)
unsprayable precipitates are formed: precipitate formation on dilution in water [2]
not satisfactory: dissolution characteristics of the resulting concentrate [1]
≤ 15%: limited solubility by weight ([3]; in many of the solvents listed in Table I)
5%: % Solubility by Weight ([3]; solvent: Amyl acetate) | % Solubility by Weight ([3]; solvent: Anisole) | % Solubility by Weight ([3]; solvent: Aromatic 150) | % Solubility by Weight ([3]; solvent: Diethyl succinate) | % Solubility by Weight ([3]; solvent: Methyl oleate) | % Solubility by Weight ([3]; solvent: Oleic acid) | % Solubility by Weight ([3]; solvent: Penn Drake Oil (Kerosene)) | % Solubility by Weight ([3]; solvent: Propylene glycol) | % Solubility by Weight ([3]; solvent: Tenneco 500/1000) | % Solubility by Weight ([3]; solvent: Triethanolamine) | % Solubility by Weight ([3]; solvent: Xylene)
